The nature of series [1]: Diet trial: blood examinations (bile acids, ALP, ALT, plasma zinc). The format is in vivo, dog. On the procedure: (§1) All dogs were fed the same diet. […] The pharmacist was the only person aware of group allocations until completion of the study. Hepatic copper concentrations and histopathology were assessed along with clinical examinations and blood-work before and after treatment for a mean of 8 months (range 5-13), and 16 months (range 12-25). Plasma zinc concentrations were measured at additional time points during treatment.
All dogs had completed their treatment with penicillamine prior to the start of this study. A medical history was obtained from all dogs and a physical examination was performed. Na-citrated blood samples were taken for analysis of a coagulation profile, including prothrombin time (PT), activated partial thromboplastin time (aPTT) and fibrinogen. Heparin- and EDTA-blood was sampled for analysis of the hepatobiliary enzymes alkaline phosphatase (ALP), alanine aminotransferase (ALT), of bile acids (BA), and for measurement of the platelet count, and plasma zinc concentrations. Liver biopsies were taken according to the Menghini technique given by Rothuizen (Rothuizen J, I. T. (1998) Tijdschr Diergeneeskd 123: 246-252). At least three liver biopsies were taken from each dog. Two biopsies were fixed in 10 percent neutral buffered formalin, and one biopsy was stored in a copper-free container for quantitative copper determination.

Series [2] has as its system Labrador Retrievers. Briefly: Diet trial with randomized, placebo-controlled zinc application: quantitative hepatic copper by neutron activation analysis. Type of series: in vivo, dog. Conditions: 7.5 mg/kg PO BID versus placebo, all dogs on diet. On the procedure:
as §1
All dogs had completed their treatment with penicillamine prior to the start of this study. A medical history was obtained from all dogs and a physical examination was performed. […] Two biopsies were fixed in 10 percent neutral buffered formalin, and one biopsy was stored in a copper-free container for quantitative copper determination.
A quantitative assay for copper in liver tissue was performed by neutron activation analysis, according to a protocol described by Teske et al, using the facilities described by Bode (Bode, P. (1990) Journal of Trace and Microprobe Techniques 8: 139; Teske et al. (1992) Vet Rec 131: 30-32). Quantitative copper concentrations were measured in lyophilised liver biopsies and reported in mg/kg dry weight liver.
All dog owners were provided with the same specially manufactured diet. […] Metabolizable energy (measured according to Association of American Feed Control Officials protocol): 1650 kcal/kg as fed). […]

For series [3], the system named is Labrador Retrievers. The series is described as follows: Diet trial: observed adverse effects. Type of series: in vivo, dog. Conditions: in 3 dogs of group 1; immediately after the tablets, resolved when tablets were mixed with the diet. On the procedure:
as §1
Owners were instructed to give the tablets mixed with small amounts of their diet 30 minutes before feeding. Neither the owner nor the clinician was informed about which treatment each dog received.

The nature of series [4]: Pharmacokinetic study of oral zinc gluconate, plasma zinc by atomic absorption spectrometry. The format is in vivo, Labrador Retrievers. Conditions: for V_F: volume of distribution: food withheld 12 h before dosing. On the procedure: Two unrelated nine-year old, healthy Labrador Retrievers (1 female and 1 male) were used in a pharmacokinetic study. Food was withheld for a 12-hour period prior to oral administration of zinc, and during the initial 6-hour testing period. Water was freely available. […] Heparinized blood samples (4 ml) were collected from the jugular vein before dosing (time 0) and 15, 30, 45, 60, 90, 120 minutes, and 4, 8, 12 and 24 hours after application of the drug. Plasma was stored at
−20° C. until analysis for zinc using atomic absorption spectrometry. […]

Series [5] concerns Labrador Retrievers. Briefly: Hepatic copper before penicillamine, after penicillamine and after diet (Example 5, FIG. 3). Type of series: in vivo, dog. Conditions: all dogs on diet, data not shown. The method, then: FIG. 3 illustrates the effectiveness of the diet of the invention on hepatic copper concentrations (mg/kg dry weight) in 18 Labrador Retrievers compared with the effect of penicillamine alone. The key to the x-axis is as follows: 1=pre-penicillamine, 2=post-penicillamine/pre-food, 3=post-food. […] The dotted line represents the normal level of hepatic copper for adult dogs.
During an investigation of the effect of zinc on hepatic copper concentration, hepatic copper concentration was measured in 18 pure-bred Labrador Retrievers. Half of the dogs were provided with a supplement of zinc and the other half were provided with a placebo. All of the dogs were fed the diet of Example 2. Hepatic copper concentration was measured using the method of Example 2 at 3 time points: (1) before treatment with penicillamine; (2) after treatment with penicillamine but before treatment with the diet of Example 2; and (3) after the diet treatment.

Take zinc gluconate: the “plasma zinc concentration, group 1 versus group 2” value in series [1] (at any of the three examinations (start, recheck-1, recheck-2)) is listed as “No difference”. Also, the “mean plasma zinc concentration” value in series [1] (group 1, after the initial month of treatment, sampled 2-6 hours after zinc application, start 95) was found to be 165 µg/dL. Further, in the series on Labrador Retrievers [2], the “effect of adjunctive zinc on hepatic copper decrease by diet” value is listed as “did not amplify the de-coppering effect”. The adverse effects entry in the series with Labrador Retrievers [3] was “Vomiting, anorexia, and diarrhea”. In addition, in series [4] (Dog 1, 10 mg/kg oral), the “AUC: area under the curve” value was 63350 ng·h/mL, the “K01: absorption rate constant” value was found to be 0.5672 h⁻¹, the “K10: elimination rate constant” value turned out to be 0.05373 h⁻¹ and the “Tmax: time of maximum concentration” value is 4.59 h. In addition, in series [4] (Dog 1, 10 mg/kg oral), the “V_F: volume of distribution” value is recorded as 2937.872 ml/kg bodyweight. In series [4] (Dog 2, 5 mg/kg oral), the “AUC: area under the curve” value was 51990 ng·h/mL, the “K01: absorption rate constant” value was determined as 1.161 h⁻¹, the “K10: elimination rate constant” value is 0.03789 h⁻¹ and the “Tmax: time of maximum concentration” value turned out to be 3.048 h. Also, the “V_F: volume of distribution” value in series [4] (Dog 2, 5 mg/kg oral) was determined as 2538.689 ml/kg bodyweight. In addition, the “calculated accumulation rate R” value in series [4] (R=1/(1−exp(−k10*24))) is reported as 1.52. In addition, in series [4] (mean of dog 1 and dog 2), the “apparent oral clearance (CL/F), mean of both dogs” value amounted to 2.116898 mL/min/kg. In addition, the “copper levels in dogs treated with zinc versus placebo” value in the series on Labrador Retrievers [5] is given as “no significant difference”.

Source of the values: patent US20120208182A1, “GENETIC TEST FOR LIVER COPPER ACCUMULATION IN DOGS AND LOW COPPER PET DIET” (priority 2009, published 2012).
